# Assay results taken from patent US20240083857A1, “2-Methyl-Quinazolines” (Bayer Pharma Aktiengesellschaft, priority 2017, published 2024).
# Experiments:
# [1] = target: human SOS1 (nucleotide exchange of K-Ras^G12C) (Homo sapiens, UniProt Q07889); assay: Biochemical assay 2: K-Ras^G12C activation assay by hSOS1 at high GTP concentration (HTRF); details: high GTP; for IC50: read-out: Assay 2 (KRAS-Activation by SOS high GTP) activity expressed as IC50; for inhibition at 20 µM: read-out: Assay 2 (KRAS-Activation by SOS high GTP) activity expressed as % inhibition at 20 μM
# [2] = target: K-Ras^G12C : hSOS1 interaction (Homo sapiens, UniProt Q07889); assay: Biochemical assay 1: K-Ras^G12C interaction assay with hSOS1 (HTRF); assay type: binding; details: for IC50: read-out: Assay 1 (KRAS-SOS Interaction) activity expressed as IC50
SMILES,IC50 [1],IC50 [2],inhibition at 20 µM [1],inhibition at 20 µM ([2]; read-out: Assay 1 (KRAS-SOS Interaction) activity expressed as % inhibition at 20 μM)
"COc1cc2nc(C)nc(NC(C)c3cccc(Oc4ccccc4)c3)c2cc1OC (single isomer, unassigned; enantiomer 1) [Example 228, 6,7-dimethoxy-2-methyl-N-[1-(3-phenoxyphenyl)ethyl]quinazolin-4-amine, Enantiomer 1]",647 nM,569 nM,–,–
"COc1cc2nc(C)nc(NC(C)c3cccc4cccnc34)c2cc1OC (single isomer, unassigned; enantiomer 1) [Example 230, 6,7-dimethoxy-2-methyl-N-[1-(quinolin-8-yl)ethyl]quinazolin-4-amine, Enantiomer 1]",6690 nM,4900 nM,–,–
"COc1cc2nc(C)nc(N[C@H](C)c3cccc(Cl)c3)c2cc1OC [Example 2, N-[(1R)-1-(3-chlorophenyl)ethyl]-6,7-dimethoxy-2-methylquinazolin-4-amine]",207 nM,127 nM,–,–
"COC(=O)c1cc2c(C(C)Nc3nc(C)nc4cc(OC)c(OC)cc34)cccc2s1 (stereo not drawn) [Example 3, methyl 4-{1-[(6,7-dimethoxy-2-methylquinazolin-4-yl)amino]ethyl}-1-benzothiophene-2-carboxylate]",115 nM,113 nM,–,–
"COc1cc2nc(C)nc(NC(C)c3cccc4ccoc34)c2cc1OC (stereo not drawn) [Example 4, N-[1-(1-benzofuran-7-yl)ethyl]-6,7-dimethoxy-2-methylquinazolin-4-amine]",243 nM,161 nM,–,–
"COc1cc2nc(C)nc(NC(C)c3ccc(F)c4[nH]ncc34)c2cc1OC (stereo not drawn) [Example 5, N-[1-(7-fluoro-1H-indazol-4-yl)ethyl]-6,7-dimethoxy-2-methylquinazolin-4-amine]",1300 nM,1710 nM,–,–
"COc1cc2nc(C)nc(NC(C)c3cc(F)cc4[nH]ncc34)c2cc1OC (stereo not drawn) [Example 6, N-[1-(6-fluoro-1H-indazol-4-yl)ethyl]-6,7-dimethoxy-2-methylquinazolin-4-amine]",1860 nM,2280 nM,–,–
"COc1cc2nc(C)nc(NC(C)c3cccc4cn(C)nc34)c2cc1OC (stereo not drawn) [Example 8, 6,7-dimethoxy-2-methyl-N-[1-(2-methyl-2H-indazol-7-yl)ethyl]quinazolin-4-amine]",19800 nM,18200 nM,–,–
"COc1cc2nc(C)nc(NC(C)c3cccc4nn(C)cc34)c2cc1OC (stereo not drawn) [Example 9, 6,7-dimethoxy-2-methyl-N-[1-(2-methyl-2H-indazol-4-yl)ethyl]quinazolin-4-amine]",1370 nM,1520 nM,–,–
"COc1cc2nc(C)nc(NC(C)c3cccc4cnn(C)c34)c2cc1OC (stereo not drawn) [Example 10, 6,7-dimethoxy-2-methyl-N-[1-(1-methyl-1H-indazol-7-yl)ethyl]quinazolin-4-amine]",1270 nM,1180 nM,–,–
"COc1cc2nc(C)nc(NC(C)c3cccc4c3CCCC4)c2cc1OC (stereo not drawn) [Example 11, 6,7-dimethoxy-2-methyl-N-[1-(5,6,7,8-tetrahydronaphthalen-1-yl)ethyl]quinazolin-4-amine]",221 nM,203 nM,–,–
"COc1cc2nc(C)nc(N[C@H](C)c3ccc(F)cc3)c2cc1OC [Example 12, N-[(1R)-1-(4-fluorophenyl)ethyl]-6,7-dimethoxy-2-methylquinazolin-4-amine]",578 nM,335 nM,–,–
"COc1cc2nc(C)nc(NC(C)c3cccc4[nH]nc(C)c34)c2cc1OC (stereo not drawn) [Example 13, 6,7-dimethoxy-2-methyl-N-[1-(3-methyl-1H-indazol-4-yl)ethyl]quinazolin-4-amine]",2650 nM,2020 nM,–,–
"COc1cc2nc(C)nc(NC(C)c3cc4cccc(O)c4o3)c2cc1OC (stereo not drawn) [Example 28, 2-{-[(6,7-dimethoxy-2-methyquinazolin-4-yl)amino]ethyl}-1-benzofuran-7-ol]",–,–,8%,40%
"COC(=O)c1ccccc1-c1ccc(C(C)Nc2nc(C)nc3cc(OC)c(OC)cc23)s1 (stereo not drawn) [Example 178, methyl 2-(5-{1-[(6,7-dimethoxy-2-methylquinazolin-4-yl)amino]ethyl}thiophen-2-yl)benzoate]",5110 nM,1430 nM,–,–
"COc1cc2nc(C)nc(NC(C)c3ccc(-c4ccccc4CN4CCC(C(N)=O)CC4)s3)c2cc1OC (stereo not drawn) [Example 179, 1-[2-(5-{1-[(6,7-dimethoxy-2-methylquinazolin-4-yl)amino]ethyl}thiophen-2-yl)benzyl]piperidine-4-carboxamide]",245 nM,90.4 nM,–,–
"COc1cc2nc(C)nc(NC(C)c3ccc(-c4ccccc4CCO)s3)c2cc1OC (stereo not drawn) [Example 180, 2-[2-(5-{1-[(6,7-dimethoxy-2-methylquinazolin-4-yl)amino]ethyl}thiophen-2-yl)phenyl]ethanol]",921 nM,241 nM,–,–
"COc1cc2nc(C)nc(NC(C)c3ccc(-c4cccc(CCO)c4)s3)c2cc1OC (stereo not drawn) [Example 181, 2-[3-(5-{1-[(6,7-dimethoxy-2-methylquinazolin-4-yl)amino]ethyl}thiophen-2-yl)phenyl]ethanol]",6510 nM,3500 nM,–,–

SMILES,IC50 [1],IC50 [2],inhibition at 20 µM [1],inhibition at 20 µM ([2]; read-out: Assay 1 (KRAS-SOS Interaction) activity expressed as % inhibition at 20 μM)
"COc1cc2nc(C)nc(NC(C)c3ccc(-c4ccccc4CN4CC5(COC5)C4)s3)c2cc1OC (stereo not drawn) [Example 182, 6,7-di methoxy-2-methyl-N-[1-{5-[2-(2-oxa-6-azaspiro[3.3]hept-6-ylmethyl)phenyl]thiophen-2-yl}ethyl]quinazolin-4-amine]",123 nM,51 nM,–,–
"COc1cc2nc(C)nc(NC(C)c3cc(C)c(Br)s3)c2cc1OC (stereo not drawn) [Example 183, N-[1-(5-bromo-4-methylthiophen-2-yl)ethyl]-6,7-dimethoxy-2-methylquinazolin-4-amine]",4200 nM,2110 nM,–,–
"COc1cc2nc(C)nc(NC(C)c3ccc(-c4ccccc4CN4CCCC4)s3)c2cc1OC (stereo not drawn) [Example 184, 6,7-dimethoxy-2-methyl-N-[1-{5-[2-(pyrrolidin-1-ylmethyl)phenyl]thiophen-2-yl}ethyl]quinazolin-4-amine]",106 nM,41.6 nM,–,–
"COc1cc2nc(C)nc(NC(C)c3ccc(-c4ccccc4CN4CCC[C@H]4CN(C)C)s3)c2cc1OC (stereo partly drawn) [Example 185, N-[1-{5-[2-({(2S)-[(dimethylamino)methyl]pyrrolidin-1-yl}methyl)phenyl]thiophen-2-yl}ethyl]-6,7-dimethoxy-2-methylquinazolin-4-amine]",344 nM,78.8 nM,–,–
"Cc1nc(N[C@H](C)c2cccc3ccccc23)c2ccccc2n1 [Example 186, 2-methyl-N-[(1R)-1-(naphthalen-1-yl)ethyl]quinazolin-4-amine]",3310 nM,9940 nM,–,–
"COc1cc2nc(C)nc(N[C@H](C)c3ccc(Br)cc3)c2cc1OC [Example 187, N-[(1R)-1-(4-bromophenyl)ethyl]-6,7-dimethoxy-2-methylquinazolin-4-amine]",562 nM,476 nM,–,–
"COc1cc2nc(C)nc(N[C@H](C)c3ccc(S(C)(=O)=O)cc3)c2cc1OC [Example 188, 6,7-dimethoxy-2-methyl-N-{(1R)-1-[4-(methylsulfonyl)phenyl]ethyl}quinazolin-4-amine]",16700 nM,15700 nM,–,–
"COc1cc2nc(C)nc(N[C@H](C)c3cccc(C)c3)c2cc1OC [Example 190, 6,7-dimethoxy-2-methyl-N-[(1R)-1-(3-methylphenyl)ethyl]quinazolin-4-amine]",153 nM,175 nM,–,–
"COc1cc2nc(C)nc(N[C@H](C)c3cccc(Br)c3)c2cc1OC [Example 191, N-[(1R)-1-(3-bromophenyl)ethyl]-6,7-dimethoxy-2-methylquinazolin-4-amine]",245 nM,174 nM,–,–
"COc1cc2nc(C)nc(N[C@H](C)c3ccc(C(N)=O)cc3)c2cc1OC [Example 192, 4-{(1R)-1-[(6,7-dimethoxy-2-methylquinazolin-4-yl)amino]ethyl}benzamide]",4090 nM,4590 nM,–,–
"COc1cc2nc(C)nc(N[C@H](C)c3cccc(-c4ccccc4)c3)c2cc1OC [Example 193, N-[(1R)-1-(biphenyl-3-yl)ethyl]-6,7-dimethoxy-2-methylquinazolin-4-amine]",405 nM,416 nM,–,–
"COc1cc2nc(C)nc(N[C@H](C)c3cccc(C#N)c3)c2cc1OC [Example 194, 3-{(1R)-1-[(6,7-dimethoxy-2-methylquinazolin-4-yl)amino]ethyl}benzonitrile]",594 nM,493 nM,–,–
"COc1cc2nc(C)nc(N[C@H](C)c3ccc(C)cc3)c2cc1OC [Example 195, 6,7-dimethoxy-2-methyl-N-[(1R)-1-(4-methylphenyl)ethyl]quinazolin-4-amine]",635 nM,300 nM,–,–
"COc1cc2nc(C)nc(N[C@H](C)c3ccc(-c4ccccc4)cc3)c2cc1OC [Example 196, N-[(1R)-1-(biphenyl-4-yl)ethyl]-6,7-dimethoxy-2-methylquinazolin-4-amine]",1090 nM,2420 nM,–,–
"COc1cc2nc(C)nc(N[C@H](C)c3ccc(C4CC4)cc3)c2cc1OC [Example 197, N-[(1R)-1-(4-cyclopropylphenyl)ethyl]-6,7-dimethoxy-2-methylquinazolin-4-amine]",303 nM,268 nM,–,–
"COc1cc2nc(C)nc(N[C@H](C)c3cccc(S(C)(=O)=O)c3)c2cc1OC [Example 198, 6,7-dimethoxy-2-methyl-N-{(1R)-1-[3-(methylsulfonyl)phenyl]ethyl}quinazolin-4-amine]",518 nM,291 nM,–,–
"COc1cc2nc(C)nc(N[C@H](C)c3cccc(C(N)=O)c3)c2cc1OC [Example 199, 3-{(1R)-1-[(6,7-dimethoxy-2-methylquinazolin-4-yl)amino]ethyl}benzamide]",1420 nM,1730 nM,–,–
"COc1cc2nc(C)nc(N[C@H](C)c3ccc(C4=CCN(C)CC4)cc3)c2cc1OC [Example 201, 6,7-dimethoxy-2-methyl-N-{(1R)-1-[4-(1-methyl-1,2,3,6-tetrahydropyridin-4-yl)phenyl]ethyl}quinazolin-4-amine]",–,19700 nM,20%,–
